This note sets out measurements from US20170367338A1, “COMPOSITIONS AND METHODS FOR IMPROVING AGRONOMIC CHARACTERISTICS OF PLANTS” (MONSANTO TECHNOLOGY LLC, priority 2014, published 2017).

Values after ≈ are worked out from the molar mass of the structure shown. Read-outs that look alike come from different tables or passages of the source. Marks after values point to notes of the source that are not given here.

Data set [1] relates to root knot nematode (RKN). Nature of the data set: RKN greenhouse soil assay on cucumber plants. The data set is classed as in vivo. To be noted: Acetone formulation (10% acetone in 0.05% Triton X 100), 1 mg/kg. An excerpt: Cucumber seeds are planted in a sandy soil mixture in two inch square plastic pots. When the cotyledons are fully opened and just as the first leaf begins to emerge, usually 7 days after planting, chemistry for the 7 day treatment is applied. One week later the chemistry for the 0 day treatment is applied. Separate plants are used for each application. The plants are generally in the 1-2 leaf stage now. At least four hours after the chemistry application the pots are inoculated with root knot nematode (RKN) eggs. Plants are rated for galling 14 days after the egg inoculation.
(§1) One milligram of chemistry per four pots is equal to one kilogram per hectare of chemical. A standard test uses four replications. For rates above 2 kg/ha, the desired amount of chemical is weighed into a 30 ml vial (example: 8 kg/ha rate =8 mg chemical in 30 ml vial). The chemical is dissolved in 2 ml of appropriate solvent, generally acetone. For rates below 2 kg/ha, 2 milligrams of chemistry is weighed into the vial and dissolved in 2 ml of the solvent. The appropriate amount of chemical concentrate is then pipetted into a separate 30 ml vial and solvent is added to bring the volume to 2 ml (example 0.5 kg/ha=0.5 ml of concentrate+1.5 ml solvent). Each dissolved concentrate is then brought to a total of 20 milliliters using 0.05% Triton X 100 surfactant solution.
(§2) Pots to be treated are moist but not saturated. To each of four pots, five milliliters of the appropriate chemical solution is pipetted to the media surface making sure to avoid contact with the base of the plant. Immediately following chemical application, using a mist nozzle, the pot surface is wetted sufficiently to saturate the pot watering in the chemistry. The chemical application is done in the morning.
(§3) Nematode eggs, either SCN or RKN, are added to distilled water to create a concentration of 1000 vermiform eggs […]. At least four hours after chemical treatment the eggs are applied to the treated pots plus non-treated check plants. A small hole about 1 cm deep is punched into the pot surface. One milliliter of the nematode egg slurry is pipetted into the hole. Immediately afterwards the hole is gently covered. Watering of the test plants is then restricted to only water as needed to prevent wilt for a period of 24 hours. After the 24 hour restricted watering, normal sub-irrigation watering is done for the duration of the test.

Data set [2] deals with root knot nematode. The experiment in a line: Pre-plant incorporated (PPI) greenhouse test of root knot nematode on cucumber plants. The data set is classed as in vivo. The conditions noted are these: fourteen day pre-plant incorporated; for pest or weed control at 4000 g/ha: 336 h, 4 kg/ha, read-out: percent control (galling reduction), 4 kg/ha rate; for pest or weed control at 8000 g/ha: 8 ka/ha, read-out: percent control (galling reduction), 8 ka/ha rate. The text has this:
The PPI test examines the effect of pre-incorporation of compounds in soil and longer aging to simulate in furrow methods of nematicide application in the field. The PPI test exposes compounds to a higher volume of soil and drying which can result in more severe soil binding. Compounds are also aged for longer periods which can lead to more extensive biotic and abiotic degradation further limiting activity.
The chemically treated soil (sandy soil mix) for all treatment days (e.g., 7 days, 14 days, 21 days) treatments is potted into their appropriate pots. On the same day the 7 day treatment pots are seeded. One week later eggs are applied and 14 days after egg application the test is harvested. The 14 day treatments are planted 7 days after the first planting. The 14 day planting and 7 day inoculation happen on the same day. One week later the 14 day treatments are inoculated with eggs. These are harvested 14 days after the inoculation. The 21 day treatments are planted 14 days after the first planting. The 14 day inoculation and 21 day planting are done on the same day. One week later the 21 day plants are inoculated with eggs. The 7 day treatment is harvested the same day as the 21 day inoculation. Fourteen days after inoculation the 21 day plants are harvested.
For each compound a stock is prepared using 4 mg material in 4 ml of acetone. The soil is mixed by placing 80 ml of field soil and 320 ml of sand in a plastic bag and mixing well. The formulation for treatment is done by adding 2.13 ml (8 kg/ha rate), 1.06 ml (4 kg/ha rate) or 0.53 ml (2 kg/ha rate) to a vial and raising it with 10 ml in 0.05% X100. Soil is then treated by adding the entire 10 ml to the 400 ml of mix in the bag. The treated soil is immediately mixed well in the sealed bag to distribute the compound evenly. Approximately 95 ml is used to fill each 2-inch square pot up to the top with some soil compression and flattening. For each compound and for the control treatments 4 pots are filled. All pots are watered until moist but with no run-out through the bottom.
The PPI test simulates 8, 4 and 2 kg/ha rates incorporated 15 cm deep in the field and is equivalent to the 2, 1 and 0.5 kg/ha drench application rates in the standard 2-inch pot cucumber greenhouse assay.

For data set [3], the system named is Heterodera glycines (SCN). Nature of the data set: Seed treatment test of soybean cyst nematode on soybean. The data set is classed as in vivo. The conditions noted are these: Heterodera glycines, 672 h, read-out: percent cyst reduction relative to control blank treatment; for pest or weed control at 0.375 mg/g: 0.375 mg ai/gram seed; for pest or weed control at 1.5 mg/g: 1.5 mg ai/gram seed. The procedure: For a given concentration the chemical is dissolved in 500 ul of acetone and one gram of cucumber seed (RKN test) or soybean seed (SCN test) is added (e.g., 20 mg active ingredient in 500 ul acetone plus 1 gram of seed). The seed solutions are agitated until all seeds were thoroughly covered with the chemical solution. The acetone is then allowed to evaporate by air drying the seeds. The seeds are planted in 2-inch pots containing sandy soil and then the pots are inoculated with 1000 Meloidogyne incognita (RKN) or 1000 Heterodera glycines (SCN) eggs per pot three days after planting. Plants are rated for galling 14 days after egg inoculation for RKN or 28 days after egg inoculation for SCN.

In data set [4] the test system is root knot nematode (RKN). Nature of the data set: RKN greenhouse soil assay on cucumber plants. The conditions noted are these: Radex emulsifiable concentrate formulation (6.25% active ingredient). The data set is classed as in vivo.
Data set [5] relates to soybean cyst nematode (SCN). Nature of the data set: SCN greenhouse sand assay on soybean plants. The data set is classed as in vivo. To be noted: Glycine max, 672 h, test d, read-out: percent control (cyst number reduction) relative to the control blank treatment; for pest or weed control at 100 g/ha: 0.1 kg/ha; for pest or weed control at 250 g/ha: 0.25 kg/ha.
Text: Soybeans seeds are planted in 100% sand in two inch square plastic pots. Chemical treatment is done when the soybeans show the first trifoliate beginning to emerge about 10 to 12 days after planting. At least four hours after chemical application the nematode soybean cyst nematode (SCN) eggs are applied and 28 days after the egg inoculation the test is harvested.
as §1, §2, §3

Data set [6] deals with C. elegans. Nature of the data set: Three day C. elegans well assay. The data set is classed as in vivo. To be noted: Caenorhabditis elegans, L1 larvae. The essentials: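 Contact assay in wells: DMSO dilutions (4 ul from 100× stocks at 10 mg/ml) with bacterial feed in M9 buffer plus ampicillin and nystatin. L1 (starvation-arrested) or L4 worms added, shaken at 20° C. Scored at 4, 24, 48 and 72 hours.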

Data set [7] relates to Meloidogyne incognita. The experiment in a line: Summer field evaluation of pre-plant incorporated compounds on squash. The data set is classed as in vivo. To be noted: 4 kg/ha. The procedure: Test plots of 33 cm diameter holes were bored 41 cm deep into clay soil and filled with a mixture of 80% sand and 20% silt loam soil. Technical compound for each treatment was dissolved in 50 ml acetone containing 250 ul of Triton X-100 surfactant. This solution was added to 450 ml water and poured onto 95 liters of sand/soil mixture in a rotating drum mixer. While continuing to rotate the mixing drum 66 grams of chopped, galled, tomato roots was added and thoroughly distributed. The treated soil was sufficient to fill the top 15 cm of each of the 6 replicate plots, thus simulating a PPI treatment. The plots were then watered lightly and a mixture of M. incognita eggs and larvae were injected 5 cm deep at 5 points within the plot (100k eggs/larvae in 10m1 per plot). Three-week old squash (cv. Liberator III) with 1 fully expanded true leaf was planted 4 days after soil treatment, one per plot.

Data set [8] has as its system caspase-3. Nature of the data set: Caspase-3 activity in H4IIE cells (DEVD-AMC). To be noted: rat hepatoma derived H4IIE cells, concentrations up to 300 μM. The data set is classed as cell-based. The procedure: To evaluate whether the compound classes of this invention are able to induce apoptosis, caspase-3 activity was determined after compound exposure in rat hepatoma derived H4IIE cells using a caspase substrate (DEVD, Asp-Glu-Val-Asp) labeled with a fluorescent molecule, 7-Amino-4-methylcoumarin (AMC). Caspase 3 cleaves the tetrapeptide between D and AMC, thus releasing the fluorogenic […] AMC. Following the test article exposure to cells in 96-well plates, medium was aspirated from plates and PBS added to each well. Plates were stored at −80° C. to lyse cells and store samples until further analysis. On the day of analysis, plates were removed from freezer and thawed. Caspase buffer with fluorescent substrate was added to each well and incubated at room temperature for one hour. AMC release was measured in a spectrofluorometer at an excitation wavelength of 360 nm and an emission wavelength of 460 nm. Values are expressed as relative fluorescent units (RFU).

[9] abbreviates: 24 h, one day of exposure, read-out: EC50 L1 1D.
Where [10] appears, read: 48 h, two days of exposure, read-out: EC50 L1 2D.
Where [11] appears, read: 72 h, three days of exposure, read-out: EC50 L1 3D.

`Clc1ccc(-c2noc(-c3cccs3)n2)cc1` [compound 5527]: the “percent control (galling reduction), Acetone 1 mg/kg” value in data set [1] is reported as 91%. In addition, in data set [2] (test a), the pest or weed control at 4000 g/ha came out at 90%; the “percent control (galling reduction), 2 kg/ha rate” value is recorded as 57^a percent; the pest or weed control at 8000 g/ha stood at 96%. Also, in data set [3] (test a), the pest or weed control at 0.375 mg/g came to 43% and the pest or weed control at 1.5 mg/g was 71%. In addition, the “percent control (galling reduction), Radex 1 mg/kg” value in data set [4] amounted to 80%.

Consider `Fc1ccc(-c2noc(-c3cccs3)n2)cc1` [compound 5479], for which, in data set [1], the “percent control (galling reduction), Acetone 1 mg/kg” value is 91%. Moreover, in data set [2] (test a), the pest or weed control at 4000 g/ha is 89%; the “percent control (galling reduction), 2 kg/ha rate” value is recorded as 71^a percent; the pest or weed control at 8000 g/ha came out at 100%. In data set [3] (test a), the pest or weed control at 0.375 mg/g came to 67% and the pest or weed control at 1.5 mg/g came to 88%. In data set [3] (test b), the pest or weed control at 0.375 mg/g came to 69% and the pest or weed control at 1.5 mg/g stood at 83%. The “percent control (galling reduction), Radex 1 mg/kg” value in data set [4] worked out at 96%.

In the case of `Cc1cc(Cl)ccc1-c1nsc(-c2ccco2)n1` [compound 5938], the pest or weed control at 100 g/ha in data set [5] came to 60%. In data set [5], the pest or weed control at 250 g/ha was found to be 89%. The EC50 in data set [6] (setting [9]), in data set [6] (setting [10]) and in data set [6] (setting [11]) was 1.6 µg/mL (≈ 5.78 µM) throughout. The pest or weed control at 4000 g/ha in data set [2] (test b) is 90%. Further, the pest or weed control at 8000 g/ha in data set [2] (test b) is 100%. Also, in data set [7], the “control of M. incognita by PPI application” value is on record as “excellent control”. Also, the “induction of caspase-3” value in data set [8] was “no induction of caspase-3”.

Turning to `Fc1cc(Cl)ccc1-c1cnc(-c2cccs2)o1` [compound 5915], in data set [5], the pest or weed control at 100 g/ha came out at 44% and the pest or weed control at 250 g/ha amounted to 74%. For the same compound, the EC50 in data set [6] (setting [9]) worked out at 0.4 µg/mL (≈ 1.43 µM). In addition, the EC50 in data set [6] (setting [10]) is 0.4 µg/mL (≈ 1.43 µM). Moreover, in data set [6] (setting [11]), the concentration for a half-maximal effect (EC50) came to 0.4 µg/mL (≈ 1.43 µM). For the same compound, in data set [2] (test b), the pest or weed control at 4000 g/ha was 70% and the pest or weed control at 8000 g/ha is 99%. Moreover, in data set [8], the “induction of caspase-3” value is on record as “no induction of caspase-3”.

For `Clc1ccc(-c2noc(-c3ccco3)n2)cc1` [compound 5523], the “percent control (galling reduction), Acetone 1 mg/kg” value in data set [1] was determined as 86%. Further, in data set [2] (test a), the pest or weed control at 4000 g/ha came to 87%; the “percent control (galling reduction), 2 kg/ha rate” value is given as 59^a percent; the pest or weed control at 8000 g/ha stood at 99%. The “control of M. incognita by PPI application” value in data set [7] is “significant control”. Also, the “percent control (galling reduction), Radex 1 mg/kg” value in data set [4] amounted to 86%.
